Format in all cases: cell-based, mouse
Assay [1] concerns mesenchyme free lung explants (lung epithelium in Matrigel). In words: mesenchyme-free lung explant culture, growth and branching. As to the method:
(§1) Pancreas and individual lobes of the lungs were dissected from embryos harvested from timed pregnancy setups. Embryonic explants were cultured on 12 mm Transwell® with 0.4 μm polyester membrane insert (Corning, Tewsbury, Mass.) at the air-liquid interface in DME media with 10% fetal calf serum, glutamine and penicillin-streptomycin. For longer-term cultures (>3 days), media was changed daily.
For mesenchyme-free cultures, lungs were dissected and incubated in Collagenase/Dispase (1 mg/ml for each) for 10-15 minutes at room temperature. Epithelial tissue was removed by mechanical dissection, transferred to the Transwell® plates, and covered with 5-10 μl of 1:1 Matrigel:DME. After Matrigel was solidified, 400 μl media (DME/10% FCS/glutamine/pen-strep+200 ng/ml FGF7 (Life Technologies, Carlsbad, Calif.), FGF1 (Life Technologies), or EGF (Life Technologies)) was added to top and bottom wells. Erlotinib (Tarceva®, 1 μM hydrochloride salt; OSI Pharmaceuticals) or DMSO was added as indicated.
(§2) Embryonic explants were fixed in 4% paraformaldehyde, permeabilized in PBS with 2% BSA, 0.1% saponin or 0.1% Triton-X100. After washing, tissues were stained with anti-E-cadherin (Santa Cruz). Explants were mounted and imaged with a Leica SP5 laser confocal microscope. Images shown are representative of multiple independent experiments (n≧5) with littermate explants that were cultured, stained and imaged under substantially the same conditions and settings.
(§3) Homozygous germline mutations in LKB1 in mice are early embryonic lethal. […] This allele (Lkb1^MG) was “knocked-in” to the endogenous LKB1 locus to generate a genetically engineered mouse line that has been described in detail elsewhere (Lo et al., 2012, J. Cell. Biol., 199: 1117-1130). Lung and pancreas tissues from Lkb1^MG/MG embryos and wild-type littermates were dissected and grown in vitro for several days. Lung cultures were grown both as whole mount explants, and “mesenchyme-free” where most of the mesenchyme and other tissue types were stripped from the lung epithelium and the epithelium was cultured in Matrigel (Lu et al., 2005, J. Biol. Chem., 280: 4834-4841). During this time, the response of these tissues to growth factors was assessed.

Assay [2] has as its system whole mount lung explants. In words: whole mount lung explant culture, growth. To be noted: for size of terminal buds: addition of EGF. The protocol:
as §1, §2, §3

In assay [3] the test system is pancreatic explants. In words: pancreatic explant culture, cyst formation. As to the method:
as §1, §2, §3

With `C#Cc1cccc(Nc2ncnc3cc(OCCOC)c(OCCOC)cc23)c1` [erlotinib], the “effect on EGF-induced growth” value in assay [1] (mesenchyme free cultures, erlotinib 1 μM, EGF + NMPP1) was “inhibited”; in assay [2] (whole mount cultures, erlotinib 1 μM, EGF + NMPP1), “inhibited”. Also, the “effect on development of the cystic phenotype” value in assay [3] (erlotinib 1 μM, Lkb1 inhibition (NMPP1) with EGF) is “inhibits the development of the cystic phenotype”.

“EGF: epidermal growth factor (Life Technologies) added to explant media (NSDSECPLSHDGYCLHDGVCMYIEALDKYACNCVVGYIGERCQYRDLKWWELR; UniProt P01133 971-1023, looked up)”: the growth result in assay [1] (Lkb1 MG/MG explants, EGF 100 ng/ml in the presence of NMPP1) was “substantial growth”. The “growth compared to no growth factor” value in assay [1] (Lkb1 wt/wt explants, EGF 100 ng/ml in the presence of NMPP1) is listed as “modest increase in growth”. Besides, the entries for the “size of terminal buds” value in assay [2] (LKB1 wt/wt lungs) and in assay [2] (Lkb1 MG/MG lungs) were “only a modest increase in size” and “substantial enlargement of the terminal buds”, respectively. Besides, the “development of the cystic phenotype” value in assay [3] (EGF 100 ng/ml, with Lkb1 inhibition) is “accelerates the development of the cystic phenotype”. For the same compound, the cyst formation result in assay [3] (EGF, in the absence of Lkb1 inhibition) is “does not by itself promote cysts”.

Regarding “FGF-1: fibroblast growth factor (FGF)-1 (Life Technologies)”, the “growth of mesenchyme free lung cultures” value in assay [1] (both LKB1 wt/wt and LKB1 MG/MG, presence and absence of NMPP1) is listed as “robust growth”.

Values taken from patent publication US20140314747A1, “PREDICTING RESPONSE TO EGFR INHIBITORS” (Genentech, Inc., priority 2013, published 2014).
